Data on 5 molecules can be found in patent US20230271943A1, “COMPOUNDS AS DHODH INHIBITORS” (Nanjing Zenshine Pharmaceuticals Co., Ltd., priority 2020, published 2023).

pEC50, pIC50: −log10 of the molar value.

One data set is described as follows: in vitro. The settings on record: dog.
Another data set has as its system A/PR/8/34 (H1N1) strain. Briefly: Antiviral CPE assay in MDCK cells, A/PR/8/34 (H1N1). The class given is cell-based. The settings on record: Influenza A virus, 120 h, 5 days, CCK-8, read-out: Activity of anti-A/PR/8/34 (H1N1) EC50.
The target of another data set is recombinant human DHODH (Homo sapiens, UniProt Q02127). Briefly: Biochemical enzymatic assay (DCIP bleaching). The settings on record: DCIP absorbance 600 nm, 60 min RT. The method, then:
The biochemical activity of DHODH was measured by the bleaching of the dye 2,6-dichlorophenolindophenol (DCIP) (Knecht W. et al., Biochem. Pharmacol. 1998, 56, 1259-1264). The assay was conducted in buffer containing 50 mM Tris, 150 mM KCI, and 0.1% Triton® X-100 (pH 8.0). 5 ng DHODH protein in 50 µL assay buffer was mixed in a well of 96-well clear assay plate (Corning Cat#3599) with 25 µL series concentration of inhibitor at room temperature for 30mins prior to adding 25 µL substrate solution (1 mM L-Dihydroorotic acid, 0.1 mM Decylubiquinone, 0.06 mM DCIP). After incubation at RT for 60mins, absorbance at 600 nm was obtained using a PerkinElmer multimode plate-reading spectrophotometer. Purified recombinant human DHODH was purchased from R&D systems (Catalog# 10062-DD-020), L-dihydroorotic acid (Sigma, D7128), decylubiquinone (Sigma, D7911), DCIP (Sigma, D1878) and other chemicals were purchased from Sigma-Aldrich.

The test system of another data set is ZIKV strain. Briefly: microbe, parasite or virus in culture. The class given is cell-based. The settings on record: Zika virus, Vero, 72 h, read-out: Activity of anti-ZIKV EC50.
Another data set has as its system MV-4-11 cells. Description: MV-4-11 cell proliferation assay (CellTiter-Glo). The class given is cell-based. The settings on record: Homo sapiens, MV4-11, 72 h, read-out: MV-4-11 Cell Proliferation Assay IC50. As for the experimental part: 5000 cells/well of MV-4-11 cells were seeded in IMDM 10% fetal calf serum (FBS, BI, Catalog#) in 96-well plates. The next day, cells were incubated with different concentrations of test compounds for 72 h. Cellular viability was analyzed using CellTiter-Glo® Luminescent Cell Viability Assay (Promega, #G7570) according to manufacturer’s instructions.
A general note: ATP-based viability assays read luminescence as a measure of living cells.

Another data set has as its system H1N1(XJ49) strain. Description: Antiviral CPE assay in MDCK cells, H1N1 (XJ49). The class given is cell-based. The settings on record: Influenza A virus, H1N1, 120 h, 5 days, CCK-8, read-out: anti-H1N1 (XJ49) EC50.
The test system of another data set is H7N9 strain. Description: microbe, parasite or virus in culture. The class given is cell-based. The settings on record: Influenza A virus, H7N9, MDCK, 120 h, read-out: Anti-H7N9 EC50.

recombinant human DHODH, sequence (Q02127 whole entry): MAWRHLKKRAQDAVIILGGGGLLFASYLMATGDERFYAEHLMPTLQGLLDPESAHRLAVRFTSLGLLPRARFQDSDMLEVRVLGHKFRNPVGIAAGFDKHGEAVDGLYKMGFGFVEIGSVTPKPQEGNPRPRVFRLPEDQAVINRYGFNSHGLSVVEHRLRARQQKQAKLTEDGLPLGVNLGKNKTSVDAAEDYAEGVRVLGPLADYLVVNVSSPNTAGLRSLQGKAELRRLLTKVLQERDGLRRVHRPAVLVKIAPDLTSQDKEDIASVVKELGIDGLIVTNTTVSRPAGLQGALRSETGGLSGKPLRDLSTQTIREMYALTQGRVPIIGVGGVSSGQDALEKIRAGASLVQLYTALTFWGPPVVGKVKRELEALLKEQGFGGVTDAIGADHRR

Molecule `O=C1c2c(O)c(=O)ccn2N([C@@H]2c3ccccc3SCc3c2ccc(F)c3F)[C@@H]2COCCN12` [Baloxavir, reference compound] had a CC50 in the data set “in vitro” of 18 nM. The pEC50 in the data set with A/PR/8/34 (H1N1) strain is 8.96.

Regarding `CCC(CC)O[C@@H]1C=C(C(=O)O)C[C@H](N)[C@H]1NC(C)=O` [Oseltamivir acid, reference compound], the CC50 in “in vitro” is > 100 nM. Further, the pEC50 with A/PR/8/34 (H1N1) strain was […].

Take `CCn1c(CO)nn(-c2cc3c(cc2F)c(=O)c(-c2c(F)cccc2Cl)nn3C(C)C(F)(F)F)c1=O` (stereo not shown) [Compound 1, 3-(2-chloro-6-fluorophenyl)-7-(4-ethyl-3-(hydroxymethyl)-5-oxo-4,5-dihydro-1H-1,2,4-triazol-1-yl)-6-fluoro-1-(1,1,1-trifluoropropan-2-yl)cinnolin-4(1H)-one]: the pIC50 at recombinant human DHODH is 6.67.

Take `CCn1c(CO)nn(-c2cc3c(C(C)C)nn(-c4c(F)cccc4Cl)c(=O)c3cc2F)c1=O` [Compound 4, 2-(2-chloro-6-fluorophenyl)-6-(4-ethyl-3-(hydroxymethyl)-5-oxo-4,5-dihydro-1H-1,2,4-triazol-1-yl)-7-fluoro-4-isopropylphthalazin-1(2H)-one]: in “in vitro”, the CC50 is > 1000 nM. Besides, the results for the pIC50 at recombinant human DHODH and in the data set with MV-4-11 cells were 7.96 and 9.05, respectively. The pEC50 in the data set on ZIKV strain was 9.43; with H1N1(XJ49) strain it was 8.24; in the data set on A/PR/8/34 (H1N1) strain, 7.64; with H7N9 strain, 7.85.

Take `CCn1c(CO)nn(-c2cc3c(cc2F)c(=O)c(-c2c(F)cccc2Cl)nn3C(C)C)c1=O` [Compound 2, 3-(2-chloro-6-fluorophenyl)-7-(4-ethyl-3-(hydroxymethyl)-5-oxo-4,5-dihydro-1H-1,2,4-triazol-1-yl)-6-fluoro-1-isopropylcinnolin-4(1H)-one]: the CC50 in the data set “in vitro” is > 1000 nM. Besides, the pIC50 on recombinant human DHODH was 7.01; in the data set with MV-4-11 cells, 10.05. Moreover, the pEC50 in the data set with A/PR/8/34 (H1N1) strain was 7.19.
